“And” between values parts separate entries of the source, which are not always exact repeats. Equal values may be shown once.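 Protocol summary: plate cells (96-well), add compound at 5 concentrations, incubate 48 h, interpolate endpoints linearly. GI50 marks 50% less growth.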 The source made the active and inactive calls. Cut-off read from the data, not from the text of the source: active = GI50 up to about 1.1 µM and inactive = higher.
Experiments:
Test in all cases: NCI anticancer screen, dose series, 48 h
NCI-H23 = tested on: NCI-H23
A549 = tested on: A549
ACHN = tested on: ACHN
UACC-62 = tested on: UACC-62
MOLT-4 = tested on: MOLT-4
LOX IMVI = tested on: LOX IMVI
RXF 393 = tested on: RXF 393
HCT-15 = tested on: HCT-15
OVCAR-3 = tested on: OVCAR-3
HCC 2998 = tested on: HCC 2998
786-0 = tested on: 786-0
T47D = tested on: T47D
HCT-116 = tested on: HCT-116
SK-MEL-2 = tested on: SK-MEL-2
EKVX = tested on: EKVX
OVCAR-5 = tested on: OVCAR-5
MDA-N = tested on: MDA-N
SN12C = tested on: SN12C
SR = tested on: SR
MDA-MB-231 = tested on: MDA-MB-231
K562 = tested on: K562
CAKI-1 = tested on: CAKI-1
MCF7 = tested on: MCF7
UACC-257 = tested on: UACC-257
HOP-62 = tested on: HOP-62
KM12 = tested on: KM12
A498 = tested on: A498
NCI-H460 = tested on: NCI-H460
U-251 = tested on: U-251
SK-OV-3 = tested on: SK-OV-3
NCI/ADR-RES = tested on: NCI/ADR-RES
HT-29 = tested on: HT-29
SW-620 = tested on: SW-620
SF-295 = tested on: SF-295
CCRF-CEM = tested on: CCRF-CEM
RPMI-8226 = tested on: RPMI-8226
DU-145 = tested on: DU-145
MDA-MB-435 = tested on: MDA-MB-435
PC-3 = tested on: PC-3
NCI-H522 = tested on: NCI-H522
OVCAR-4 = tested on: OVCAR-4
UO-31 = tested on: UO-31
SK-MEL-5 = tested on: SK-MEL-5
SF-268 = tested on: SF-268
SNB-19 = tested on: SNB-19
SK-MEL-28 = tested on: SK-MEL-28
COLO 205 = tested on: COLO 205
Malme-3M = tested on: Malme-3M
HL-60 = tested on: HL-60
M14 = tested on: M14
NCI-H226 = tested on: NCI-H226
SF-539 = tested on: SF-539

SMILES: COc1ccc2cc(C(=O)NCCCNC(=O)c3ccc4c(OC)c(OC)ccc4c3)ccc2c1OC
- GI50 (NCI-H23): > 100 µM (inactive)
- GI50 (A549): > 100 µM (inactive)
- GI50 (ACHN): > 100 µM (inactive)
- GI50 (UACC-62): > 100 µM (inactive)
- GI50 (MOLT-4): > 100 µM (inactive)
- GI50 (LOX IMVI): > 100 µM (inactive)
- GI50 (RXF 393): > 100 µM (inactive)
- GI50 (HCT-15): > 100 µM
- GI50 (OVCAR-3): > 100 µM (inactive)
- GI50 (HCC 2998): > 100 µM (inactive)
- GI50 (786-0): > 100 µM (inactive)
- GI50 (T47D): > 100 µM (inactive)
- GI50 (HCT-116): > 100 µM (inactive)
- GI50 (SK-MEL-2): > 100 µM (inactive)
- GI50 (EKVX): > 100 µM (inactive)
- GI50 (OVCAR-5): > 100 µM (inactive)
- GI50 (MDA-N): > 100 µM (inactive)
- GI50 (SN12C): > 100 µM (inactive)
- GI50 (SR): > 100 µM (inactive)
- GI50 (MDA-MB-231): > 100 µM (inactive)
- GI50 (K562): > 100 µM (inactive)
- GI50 (CAKI-1): > 100 µM (inactive)
- GI50 (MCF7): > 100 µM (inactive)
- GI50 (UACC-257): > 100 µM (inactive)
- GI50 (HOP-62): > 100 µM (inactive)
- GI50 (KM12): > 100 µM (inactive)
- GI50 (A498): > 100 µM (inactive)
- GI50 (NCI-H460): > 100 µM (inactive)
- GI50 (U-251): > 100 µM (inactive)
- GI50 (SK-OV-3): > 100 µM (inactive)
- GI50 (NCI/ADR-RES): > 100 µM (inactive)
- GI50 (HT-29): > 100 µM (inactive)
- GI50 (SW-620): > 100 µM (inactive)
- GI50 (SF-295): > 100 µM (inactive)
- GI50 (CCRF-CEM): > 100 µM (inactive)
- GI50 (RPMI-8226): > 100 µM (inactive)
- GI50 (DU-145): > 100 µM (inactive)
- GI50 (MDA-MB-435): > 100 µM (inactive)
- GI50 (PC-3): > 100 µM (inactive)
- GI50 (NCI-H522): > 100 µM (inactive)
- GI50 (OVCAR-4): > 100 µM (inactive)
- GI50 (UO-31): > 100 µM (inactive)
- GI50 (SK-MEL-5): > 100 µM (inactive)
- GI50 (SF-268): > 100 µM (inactive)
- GI50 (SNB-19): > 100 µM (inactive)
- GI50 (SK-MEL-28): > 100 µM (inactive)
- GI50 (COLO 205): > 100 µM (inactive)

SMILES: CC(=O)OCC1OC(n2c(-c3ccc(Cl)cc3)ccc(C#N)c2=S)C(OC(C)=O)C(OC(C)=O)C1OC(C)=O (stereo unspecified)
- GI50 (A549): 83.9 µM (inactive) and 66.5 µM (inactive)
- GI50 (ACHN): 68.1 µM (inactive) and 58.5 µM (inactive)
- GI50 (UACC-62): 37.4 µM (inactive) and 31.6 µM (inactive)
- GI50 (MOLT-4): > 100 µM (inactive) and 51.3 µM (inactive)
- GI50 (Malme-3M): > 61.1 µM (inactive) and 45 µM (inactive)
- GI50 (LOX IMVI): 54.1 µM (inactive)
- GI50 (RXF 393): 20 µM (inactive) and 13.3 µM (inactive)
- GI50 (HCT-15): > 100 µM
- GI50 (HCC 2998): > 100 µM (inactive)
- GI50 (T47D): 30.6 µM (inactive) and 48.9 µM (inactive)
- GI50 (HCT-116): 77.4 µM (inactive) and 61.2 µM (inactive)
- GI50 (EKVX): 17.6 µM (inactive) and 15.1 µM (inactive)
- GI50 (OVCAR-5): > 100 µM (inactive)
- GI50 (HL-60): > 100 µM (inactive)
- GI50 (MDA-N): > 100 µM (inactive)
- GI50 (SN12C): > 100 µM (inactive)
- GI50 (M14): 76 µM (inactive) and > 84.7 µM (inactive)
- GI50 (K562): > 100 µM (inactive)
- GI50 (MCF7): > 100 µM (inactive) and 50.5 µM (inactive)
- GI50 (UACC-257): > 100 µM (inactive) and 73.6 µM (inactive)
- GI50 (KM12): > 100 µM (inactive)
- GI50 (NCI-H460): > 60.4 µM (inactive) and 55.5 µM (inactive)
- GI50 (NCI/ADR-RES): 74 µM (inactive)
- GI50 (HT-29): > 100 µM (inactive)
- GI50 (SW-620): > 100 µM (inactive)
- GI50 (CCRF-CEM): > 100 µM (inactive)
- GI50 (RPMI-8226): > 100 µM (inactive) and 56 µM (inactive)
- GI50 (NCI-H226): 27 µM (inactive) and 45.9 µM (inactive)
- GI50 (SF-539): 30.4 µM (inactive) and 39.1 µM (inactive)
- GI50 (DU-145): 74.8 µM (inactive) and > 77.1 µM (inactive)
- GI50 (MDA-MB-435): 53.3 µM (inactive)
- GI50 (PC-3): > 100 µM (inactive) and 55.5 µM (inactive)
- GI50 (UO-31): 29.6 µM (inactive) and 33.6 µM (inactive)
- GI50 (SK-MEL-28): > 100 µM (inactive)

— ChEMBL document CHEMBL1201862, “PubChem BioAssay data set” (2004)
